Assays:
Assay type in all cases: in vivo, mice
II-17a mRNA = assay: Real-time RT-PCR of colonic II-17a mRNA; conditions: AS252424 vs vehicle treated infected mice
Experimental: Total RNA from colonic tissue was extracted using TRIzol® kit (Invitrogen, Carlsbad, Calif., United States of America). Complementary DNA was prepared using M-MLV (Invitrogen). Messenger RNA levels of proinflammatory genes were determined using SYBR® Green PCR Master Mix (Applied Biosystems, Carlsbad, Calif., United States of America) on an ABI 7900HT Fast Real-Time PCR System and normalized to Gapdh. The polymerase chain reactions were performed according to the manufacturer's recommendation. The following gene primers were used: Gapdh_forward: 5′-[…]-3′ (SEQ ID NO: 2), Gapdh_reverse: 5′-[…]-3′ (SEQ ID NO: 3), II-1_forward: 5′-[…]-3′ (SEQ ID NO: 4), II-1_reverse: 5′-[…]-3′ (SEQ ID NO: 5), Cxcl2_forward: 5′-[…]-3′ (SEQ ID NO: 6), Cxcl2_reverse: 5′-[…]-3′ (SEQ ID NO: 7), II-17a_forward: 5′-[…]-3′ (SEQ ID NO: 8), II-17a_reverse: 5′-[…]-3′ (SEQ ID NO: 9), II12p40_forward: […] (SEQ ID NO: 10), II12p40_reverse: […] (SEQ ID NO: 11), Tnf forward: […] (SEQ ID NO: 12), Tnf reverse: […] (SEQ ID NO: 13).
Total RNA from intestinal tissues was extracted using TRIzol® kit (Invitrogen, Carlsbad, Calif., United States of America) following the manufacture's guide. cDNA was reverse-transcribed using M-MLV (Invitrogen). Proinflammatory 111β, Cxcl2, II17a and Tnfα mRNA expression levels were measured using SYBR® Green PCR Master mix (Applied Biosystems, Carlsbad, Calif., United States of America) on an ABI 7900HT Fast Real-Time PCR System and normalized to Gapdh. The PCR primers used were reported previously. (Sun et al., 2012). The PCR reactions were performed for 40 cycles according to the manufacturer's recommendation, and RNA fold changes were calculated using the ΔΔct method.

neutrophils (MPO) = assay: Myeloperoxidase (MPO) immunohistochemistry of colon, neutrophil infiltration; conditions: in the presence of AS252424
Experimental: Deparaffinized colon sections were treated with 3% H2O2 for 10 minutes to quench endogenous peroxidases. Antigen retrieval was performed using microwave heating for 10 min in 10 mM citrate buffer pH 6.0. Sections were blocked in 5% goat serum TBS-T for 1 hour. The slides were incubated overnight at 4° C. with an anti-MPO antibody (1:400) (Thermo Scientific, Hampton, N.H., United States of America). Secondary biotinylated antibody was diluted at 1:1000 with the VECTASTAIN® ABC Elite Kit (Vector Laboratories, Inc., Burlingame, Calif., United States of America). Visualization was performed using DAB chromogen (Dako, Inc., Carpinteria, Calif., United States of America). Finally, sections were counterstained with hematoxylin for 5 seconds. Sections were imaged at the OLYMPUS® microscope using DP 71 camera and DP Controller 3.1.1.276 (Olympus, Center Valley, Pa., United States of America).
Neutrophils in intestinal tissue were detected using anti-myeloperoxidase (MPO) IHC as described previously (Sun et al., 2012). Briefly, intestinal tissue sections were deparaffinized, blocked and incubated with an anti-MPO antibody (1:400; Thermo Scientific, Hampton, N.H., United States of America) overnight. […]

C. jejuni = system: C. jejuni
Description: All animal protocols were approved by the Institutional Animal Care and Use Committee of the University of North Carolina at Chapel Hill (Chapel Hill, N.C., United States of America). Germ-free 8 to 12 week old II10^−/−; NF-κBEGFP (129/SvEv; C57BL/6 mixed background) mice were transferred from germ-free isolators and immediately gavaged with 10^9 C. jejuni cfu/mouse (strain 81-176 (Korlath et al., 1985)). Mice were then housed under Specific Pathogen-Free (SPF) conditions and sacrificed at 5 or 12 days. Germ-free II10^−/−; NF-κB^EGFP mice were also gavaged with 10^7 Salmonella typhimurium (S. typhimurium strain CA32) cfu/mouse for 2 days or 10^7 Escherichia coli (E. coli strain NC 101) cfu/mouse for 12 days. Conventionally-derived II10^−/−; NF-κB^EGFP mice were put on an antibiotic cocktail (streptomycin 2 g/L, gentamycin 0.5 g/L, bacteriocin 1 g/L and ciprofloxacin 0.125 g/L) in water for 7 days and antibiotics withdrawn 24 hours prior to infection. The mice were then gavaged with 10^9 C. jejuni cfu/mouse for 14 days. To inhibit mTOR signaling, mice were injected daily intraperitoneally (i.p.) with rapamycin (1.5 mg/kg) (Fisher Scientific, Hampton, N.H., United States of America). At the end of the experiment, mice were euthanized using CO2 intoxication. Colon, mesenteric lymph nodes (MLN) and spleen were collected for further processing RNA, protein or C. jejuni culture on Campylobacter selective blood plates (Remel, Thermo Scientific, Hampton, N.H., United States of America) for 48 h at 37° C. using the GasPak system (Becton Dickinson, Franklin Lakes, N.J., United States of America). […] Colons were fixed in 10% buffered formalin (Fisher Scientific, Hampton, N.H., United States of America) overnight, paraffin-embedded, sectioned, and stained with H&E for histological evaluation. Images were acquired using a DP71 camera and DP Controller 3.1.1.276 (Olympus, Center Valley, Pa., United States of America). Intestinal inflammation was scored by evaluating the degree of lamina propria immune cell infiltration, goblet cell depletion, architectural distortion, as well as crypt hyperplasia, ulceration, and abscesses using a score from 0-4. (Lippert et al., 2009). Cecal and colonic inflammation induced by S. typhimurium was evaluated using a score from 0-13 as described. (Hapfelmeier et al., 2005).
MLN and spleen were aseptically resected. Colon tissue was opened, resected and washed three times in sterile PBS. […] C. jejuni colonies were counted and data presented as colony forming unit (cfu)/g tissue.

## O=C1NC(=O)/C(=C/c2ccc(-c3ccc(F)cc3O)o2)S1 [AS252424]
II-17a mRNA
  block of C. jejuni-induced II17a mRNA accumulation: 72%
Neutrophils (MPO)
  C. jejuni-induced neutrophil infiltration into colonic tissues (MPO staining): strongly reduced
C. jejuni; AS252424 vs infected vehicle-treated mice
  levels of viable C. jejuni in the spleen: strongly reduced
C. jejuni; mouse, in vivo
  decrease of viable C. jejuni in MLN: 90%
  decrease of viable C. jejuni in colon: 97%

Reference: US20130225629A1, “TARGETING PI3K/MTOR SIGNALLING AND NEUTROPHIL RECRUITMENT FOR TREATMENT OF ENTERITIS” (THE UNIVERSITY OF NORTH CAROLINA AT CHAPEL HILL, priority 2012, published 2013)
